Data: PubChem BioAssay (NCI)
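A five-concentration, 48-hour dose response in 96-well plates underlies each endpoint, interpolated linearly between surrounding concentrations. At the GI50, growth is halved. At the TGI there is no net growth.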

Tests used:
Assay in all cases: NCI anticancer screen, dose series, 48 h
786-0 renal = system: 786-0 renal
A498 renal = system: A498 renal
A549 NSCLC = system: A549 NSCLC
ACHN renal = system: ACHN renal
BT-549 breast = system: BT-549 breast
CAKI-1 renal = system: CAKI-1 renal
CCRF-CEM leukemia = system: CCRF-CEM leukemia
COLO 205 colon = system: COLO 205 colon
DU-145 prostate = system: DU-145 prostate
EKVX NSCLC = system: EKVX NSCLC
HCC-2998 colon = system: HCC-2998 colon
HCT-116 colon = system: HCT-116 colon
HCT-15 colon = system: HCT-15 colon
HL-60(TB) leukemia = system: HL-60(TB) leukemia
HOP-62 NSCLC = system: HOP-62 NSCLC
HOP-92 NSCLC = system: HOP-92 NSCLC
HS 578T breast = system: HS 578T breast
HT29 colon = system: HT29 colon
IGROV1 ovarian = system: IGROV1 ovarian
K-562 leukemia = system: K-562 leukemia
KM12 colon = system: KM12 colon
LOX IMVI melanoma = system: LOX IMVI melanoma
M14 melanoma = system: M14 melanoma
MALME-3M melanoma = system: MALME-3M melanoma
MCF7 breast = system: MCF7 breast
MDA-MB-231 breast = system: MDA-MB-231 breast
MDA-MB-435 = system: MDA-MB-435
MDA-MB-468 breast = system: MDA-MB-468 breast
MOLT-4 leukemia = system: MOLT-4 leukemia
NCI-H226 lung = system: NCI-H226 lung
NCI-H23 lung = system: NCI-H23 lung
NCI-H460 lung = system: NCI-H460 lung
NCI-H522 lung = system: NCI-H522 lung
NCI/ADR-RES ovarian = system: NCI/ADR-RES ovarian
OVCAR-3 ovarian = system: OVCAR-3 ovarian
OVCAR-4 ovarian = system: OVCAR-4 ovarian
OVCAR-5 ovarian = system: OVCAR-5 ovarian
OVCAR-8 ovarian = system: OVCAR-8 ovarian
PC-3 prostate = system: PC-3 prostate
RPMI-8226 leukemia = system: RPMI-8226 leukemia
RXF 393 renal = system: RXF 393 renal
SF-268 CNS = system: SF-268 CNS
SF-295 CNS = system: SF-295 CNS
SF-539 CNS = system: SF-539 CNS
SK-MEL-2 melanoma = system: SK-MEL-2 melanoma
SK-MEL-28 melanoma = system: SK-MEL-28 melanoma
SK-MEL-5 melanoma = system: SK-MEL-5 melanoma
SK-OV-3 ovarian = system: SK-OV-3 ovarian
SN12C renal = system: SN12C renal
SNB-19 CNS = system: SNB-19 CNS
SNB-75 CNS = system: SNB-75 CNS
SW-620 colon = system: SW-620 colon
T-47D breast = system: T-47D breast
TK-10 renal = system: TK-10 renal
U251 CNS = system: U251 CNS
UACC-257 melanoma = system: UACC-257 melanoma
UACC-62 melanoma = system: UACC-62 melanoma
UO-31 renal = system: UO-31 renal

Cc1ccc(S(=O)(=O)c2nc(S(=O)(=O)c3ccc(C)cc3)c(Cl)s2)cc1
GI50 (786-0 renal): > 100 µM
TGI (786-0 renal): > 100 µM
GI50 (A498 renal): > 100 µM
TGI (A498 renal): > 100 µM
GI50 (A549 NSCLC): > 100 µM
TGI (A549 NSCLC): > 100 µM
GI50 (ACHN renal): > 100 µM
TGI (ACHN renal): > 100 µM
GI50 (BT-549 breast): > 100 µM
TGI (BT-549 breast): > 100 µM
GI50 (CAKI-1 renal): > 100 µM
TGI (CAKI-1 renal): > 100 µM
GI50 (CCRF-CEM leukemia): > 100 µM
TGI (CCRF-CEM leukemia): > 100 µM
GI50 (COLO 205 colon): > 100 µM
TGI (COLO 205 colon): > 100 µM
GI50 (DU-145 prostate): > 100 µM
TGI (DU-145 prostate): > 100 µM
GI50 (EKVX NSCLC): > 100 µM
TGI (EKVX NSCLC): > 100 µM
GI50 (HCC-2998 colon): > 100 µM
TGI (HCC-2998 colon): > 100 µM
GI50 (HCT-116 colon): > 100 µM
TGI (HCT-116 colon): > 100 µM
GI50 (HCT-15 colon): > 100 µM
TGI (HCT-15 colon): > 100 µM
GI50 (HL-60(TB) leukemia): > 100 µM
TGI (HL-60(TB) leukemia): > 100 µM
GI50 (HOP-62 NSCLC): > 100 µM
TGI (HOP-62 NSCLC): > 100 µM
GI50 (HOP-92 NSCLC): > 100 µM
TGI (HOP-92 NSCLC): > 100 µM
GI50 (HS 578T breast): > 100 µM
TGI (HS 578T breast): > 100 µM
GI50 (HT29 colon): > 100 µM
TGI (HT29 colon): > 100 µM
GI50 (IGROV1 ovarian): > 100 µM
TGI (IGROV1 ovarian): > 100 µM
GI50 (K-562 leukemia): > 100 µM
TGI (K-562 leukemia): > 100 µM
GI50 (KM12 colon): > 100 µM
TGI (KM12 colon): > 100 µM
GI50 (LOX IMVI melanoma): > 100 µM
TGI (LOX IMVI melanoma): > 100 µM
GI50 (M14 melanoma): > 100 µM
TGI (M14 melanoma): > 100 µM
GI50 (MALME-3M melanoma): > 100 µM
TGI (MALME-3M melanoma): > 100 µM
GI50 (MCF7 breast): > 100 µM
TGI (MCF7 breast): > 100 µM
GI50 (MDA-MB-231 breast): > 100 µM
TGI (MDA-MB-231 breast): > 100 µM
GI50 (MDA-MB-435): > 100 µM
TGI (MDA-MB-435): > 100 µM
GI50 (MDA-MB-468 breast): > 100 µM
TGI (MDA-MB-468 breast): > 100 µM
GI50 (MOLT-4 leukemia): > 100 µM
TGI (MOLT-4 leukemia): > 100 µM
GI50 (NCI-H226 lung): > 100 µM
TGI (NCI-H226 lung): > 100 µM
GI50 (NCI-H23 lung): > 100 µM
TGI (NCI-H23 lung): > 100 µM
GI50 (NCI-H460 lung): > 100 µM
TGI (NCI-H460 lung): > 100 µM
GI50 (NCI-H522 lung): > 100 µM
TGI (NCI-H522 lung): > 100 µM
GI50 (NCI/ADR-RES ovarian): > 100 µM
TGI (NCI/ADR-RES ovarian): > 100 µM
GI50 (OVCAR-3 ovarian): > 100 µM
TGI (OVCAR-3 ovarian): > 100 µM
GI50 (OVCAR-4 ovarian): > 100 µM
TGI (OVCAR-4 ovarian): > 100 µM
GI50 (OVCAR-5 ovarian): > 100 µM
TGI (OVCAR-5 ovarian): > 100 µM
GI50 (OVCAR-8 ovarian): > 100 µM
TGI (OVCAR-8 ovarian): > 100 µM
GI50 (PC-3 prostate): > 100 µM
TGI (PC-3 prostate): > 100 µM
GI50 (RPMI-8226 leukemia): > 100 µM
TGI (RPMI-8226 leukemia): > 100 µM
GI50 (RXF 393 renal): > 100 µM
TGI (RXF 393 renal): > 100 µM
GI50 (SF-268 CNS): > 100 µM
TGI (SF-268 CNS): > 100 µM
GI50 (SF-295 CNS): > 100 µM
TGI (SF-295 CNS): > 100 µM
GI50 (SF-539 CNS): > 100 µM
TGI (SF-539 CNS): > 100 µM
GI50 (SK-MEL-2 melanoma): > 100 µM
TGI (SK-MEL-2 melanoma): > 100 µM
GI50 (SK-MEL-28 melanoma): > 100 µM
TGI (SK-MEL-28 melanoma): > 100 µM
GI50 (SK-MEL-5 melanoma): > 100 µM
TGI (SK-MEL-5 melanoma): > 100 µM
GI50 (SK-OV-3 ovarian): > 100 µM
TGI (SK-OV-3 ovarian): > 100 µM
GI50 (SN12C renal): > 100 µM
TGI (SN12C renal): > 100 µM
GI50 (SNB-19 CNS): > 100 µM
TGI (SNB-19 CNS): > 100 µM
GI50 (SNB-75 CNS): > 100 µM
TGI (SNB-75 CNS): > 100 µM
GI50 (SW-620 colon): > 100 µM
TGI (SW-620 colon): > 100 µM
GI50 (T-47D breast): > 100 µM
TGI (T-47D breast): > 100 µM
GI50 (TK-10 renal): > 100 µM
TGI (TK-10 renal): > 100 µM
GI50 (U251 CNS): > 100 µM
TGI (U251 CNS): > 100 µM
GI50 (UACC-257 melanoma): > 100 µM
TGI (UACC-257 melanoma): > 100 µM
GI50 (UACC-62 melanoma): > 100 µM
TGI (UACC-62 melanoma): > 100 µM
GI50 (UO-31 renal): > 100 µM
TGI (UO-31 renal): > 100 µM
